Source: ChEMBL document CHEMBL1126367, “The discovery of a novel calcium channel blocker related to the structure of potassium channel opener cromakalim” (Bioorg Med Chem Lett, 1992)

Experiments:
Rattus norvegicus [1] = experiment: Compound was evaluated for the antihypertensive activity at a dose of 45 umol/kg given orally; No significant effect on blood pressure; type: functional, organism-based
Rattus norvegicus [2] = organism: Rattus norvegicus; experiment: Vasorelaxant potency by relaxation of the methoxamine contracted rat aorta; type: functional
Rattus norvegicus [3] = experiment: The compound was evaluated for the antihypertensive activity at a dose of 45 umol/kg given orally; type: functional
Rattus norvegicus [4] = experiment: Compound was evaluated for the antihypertensive activity at a dose of 45 umol/kg given orally; No significant effect on blood pressure.; type: functional, organism-based
Cavia porcellus [5] = organism: Cavia porcellus; experiment: Percent inhibition of inward calcium current by 100 uM of the compound; type: functional; design: scale not given: the % may be the effect or the level left
Cavia porcellus [6] = organism: Cavia porcellus; experiment: Percent inhibition of inward calcium current by 10 uM of the compound; type: functional; design: scale not given: the % may be the effect or the level left
Cavia porcellus [7] = organism: Cavia porcellus; experiment: Percent inhibition of inward calcium current by 50 uM of the compound; type: functional; design: scale not given: the % may be the effect or the level left
Rattus norvegicus [8] = experiment: The compound was evaluated for the antihypertensive activity at a dose of 45 umol/kg given orally.; type: functional

For `COc1ccc([C@@H]2Sc3ccccc3N(CCN(C)C)C(=O)[C@@H]2OC(C)=O)cc1` [DILTIAZEM], the IC50 (Rattus norvegicus [1]) was “Not Active” and the IC50 (Rattus norvegicus [2]) was 2380 nM.

In the case of `CC1(C)Oc2ccc(C#N)cc2[C@@H](N2CCCC2=O)[C@@H]1O` [CROMAKALIM], the Activity (Rattus norvegicus [3]) is reported as 63%.

`CC1(C)Oc2c(c(=O)n(Cc3ccccc3)c3ccccc23)[C@@H](N2CCCC2=O)[C@@H]1O` was tested, and the IC50 (Rattus norvegicus [4]) was “Not Active”, the IC50 (Rattus norvegicus [2]) was 440 nM and the Activity (Cavia porcellus [5]) was 55%. It also gave an Activity (Cavia porcellus [6]) of 30% and an Activity (Cavia porcellus [7]) of 46%.

In the case of `COC(=O)C1=C(C)NC(C)=C(C(=O)OC)C1c1ccccc1[N+](=O)[O-]` [NIFEDIPINE], the Activity (Rattus norvegicus [8]) is reported as 33% and the IC50 (Rattus norvegicus [2]) is reported as 4 nM.
